Test system: fibromyalgia pain in soft tissue regions and myofacial regions
Details: for patient-reported pain levels in the treated regions: daily use in a topical form on skin adjacent to regions where pain is experienced, during treatment; for patient-reported pain levels after treatment is halted: treatment halted after several months, report weeks later
Text: The following prophetic examples are of cases that address the painful experiences associated with fibromyalgia. The examples also describe a new, safe, simple and until now, an unknown pharmaceutical solution to the problem of fibromyalgia syndrome: the novel use of vasodilators such as calcium channel blockers, ACE inhibitors, and angiotensin receptor blockers. Vasodilators are not analgesics, but they resolve or mitigate the pain associated with fibromyalgia.
A patient is diagnosed with fibromyalgia, and suffers from pain in soft tissue regions and myofacial regions. […] After several months, treatment is halted.
A patient is diagnosed with fibromyalgia, and suffers from pain in soft tissue regions and myofacial regions. Daily use of Amlodipine in a topical form is prescribed for application to skin adjacent to regions where pain is experienced. […] After several months, treatment is halted.
A patient is diagnosed with fibromyalgia, and suffers from pain in soft tissue regions and myofacial regions. Daily use of enalapril in a topical form is prescribed for application to skin adjacent to regions where pain is experienced. […] After several months, treatment is halted.
A patient is diagnosed with fibromyalgia, and suffers from pain in soft tissue regions and myofacial regions. Daily use of lisinopril in a topical form is prescribed for application to skin adjacent to regions where pain is experienced. […] After several months, treatment is halted.
A patient is diagnosed with fibromyalgia, and suffers from pain in soft tissue regions and myofacial regions. Daily use of losartan in a topical form is prescribed for application to skin adjacent to regions where pain is experienced. […] After several months, treatment is halted.
A patient is diagnosed with fibromyalgia, and suffers from pain in soft tissue regions and myofacial regions. Daily use of irbesartan in a topical form is prescribed for application to skin adjacent to regions where pain is experienced. […] After several months, treatment is halted.

| Compound | patient-reported pain levels in the treated regions | patient-reported pain levels after treatment is halted |
| --- | --- | --- |
| CCOC(=O)[C@H](CCc1ccccc1)N[C@@H](C)C(=O)N1CCC[C@H]1C(=O)O [enalapril] | reduction in pain levels | reduction in pain levels has been maintained |
| CCCCC1=NC2(CCCC2)C(=O)N1Cc1ccc(-c2ccccc2-c2nnn[nH]2)cc1 [irbesartan] | reduction in pain levels | reduction in pain levels has been maintained |
| NCCCC[C@H](N[C@@H](CCc1ccccc1)C(=O)O)C(=O)N1CCC[C@H]1C(=O)O [lisinopril] | reduction in pain levels | reduction in pain levels has been maintained |
| CCCCc1nc(Cl)c(CO)n1Cc1ccc(-c2ccccc2-c2nn[nH]n2)cc1 [losartan] | reduction in pain levels | reduction in pain levels has been maintained |

— patent US20220241264A1, “METHODS FOR PREVENTION AND TREATMENT OF FIBROMYALGIA BY CONTACT VASODILATORS” (priority 2019, published 2022)
